Measured values reported in patent US11319299B2, “Substituted carboxamides as inhibitors of WDR5 protein-protein binding” (PROPELLON THERAPEUTICS INC., priority 2016, dated 2022).

The compounds below were run against WDR5 (Homo sapiens (Human), UniProt P61964) (assay: Surface Plasmon Resonance (SPR) assay, KD and residence time). Settings: surface plasmon resonance (SPR) assay; read-out: WDR5 binding affinity (KD).
Format: binding

Row | SMILES | Kd
1 | C[C@@H]1CN(c2cc(F)c(-c3cnc(N4CCNCC4)nc3)cc2NC(=O)c2c[nH]c(=O)cc2C(F)(F)F)C[C@H](C)N1C [Example 158, N-[4-fluoro-5-(2-piperazin-1-ylpyrimidin-5-yl)-2-[(3R,5S)-3,4,5-trimethylpiperazin-1-yl]phenyl]-6-oxo-4-(trifluoromethyl)-1H-pyridine-3-carboxamide] | 0.345 nM
2 | CC(=O)N1CC=C(c2cc(NC(=O)c3c[nH]c(=O)cc3C(F)(F)F)c(N3C[C@@H](C)N(C)[C@@H](C)C3)cc2F)CC1 [Example 252, N-[5-(1-acetyl-3,6-dihydro-2H-pyridin-4-yl)-4-fluoro-2-[(3R,5S)-3,4,5-trimethylpiperazin-1-yl]phenyl]-6-oxo-4-(trifluoromethyl)-H-pyridine-3-carboxamide] | 2.79 nM
3 | CC1CN(c2cc(F)c(-c3cnc(N4CCOCC4)nc3)cc2NC(=O)c2nn(C)c3ccccc23)CCN1C (stereo in doubt) [Example 116, N-[4-fluoro-5-(2-morpholin-4-ylpyrimidin-5-yl)-2-[(3R)-3,4-dimethylpiperazin-1-yl]phenyl]-1-methylindazole-3-carboxamide] | 76.8 nM
4 | C[C@@H]1CN(c2cc(F)c(C3=CC4CCC(C3)N4C(=O)OC(C)(C)C)cc2NC(=O)c2cn(C)c(=O)cc2C(F)(F)F)C[C@H](C)N1C (mixture of isomers) [Example 327, tert-butyl 3-[2-fluoro-5-[[-methyl-6-oxo-4-(trifluoromethyl)pyridine-3-carbonyl]amino]-4-[(3R,5S)-3,4,5-trimethylpiperazin-1-yl]phenyl]-8-azabicyclo[3.2.1]oct-2-ene-8-carboxylate] | 123 nM

Other lines, results leading:

Row | Kd | SMILES
5 | 2.24 nM | CCN(CC)c1ncc(-c2cc(NC(=O)c3c[nH]c(=O)cc3C(F)(F)F)c(N3C[C@@H](C)N(C)[C@@H](C)C3)cc2F)cn1 [Example 294, N-[5-[2-(diethylamino)pyrimidin-5-yl]-4-fluoro-2-[(3R,5S)-3,4,5-trimethylpiperazin-1-yl]phenyl]-6-oxo-4-(trifluoromethyl)-1H-pyridine-3-carboxamide]
6 | 5.46 nM | C[C@@H]1CN(c2cc(F)c(C3=CCN(Cc4cccnc4)CC3)cc2NC(=O)c2c[nH]c(=O)cc2C(F)(F)F)C[C@H](C)N1C [Example 154, N-[4-fluoro-5-[1-(pyridin-3-ylmethyl)-3,6-dihydro-2H-pyridin-4-yl]-2-[(3R,5S)-3,4,5-trimethylpiperazin-1-yl]phenyl]-6-oxo-4-(trifluoromethyl)-1H-pyridine-3-carboxamide]
7 | 1.53 nM | C[C@@H]1CN(c2cc(F)c(-c3ccc(N4CCOCC4)nn3)cc2NC(=O)c2c[nH]c(=O)cc2C(F)(F)F)C[C@H](C)N1C [Example 384, N-[4-fluoro-5-(6-morpholin-4-ylpyridazin-3-yl)-2-[(3R,5S)-3,4,5-trimethylpiperazin-1-yl]phenyl]-6-oxo-4-(trifluoromethyl)-1H-pyridine-3-carboxamide]
8 | 0.499 nM | Cc1cnc(N2CC=C(c3cc(NC(=O)c4c[nH]c(=O)cc4C(F)(F)F)c(N4C[C@@H](C)N(C)[C@@H](C)C4)cc3F)CC2)nc1 [Example 271, N-[4-fluoro-5-[1-(5-methylpyrimidin-2-yl)-3,6-dihydro-2H-pyridin-4-yl]-2-[(3R,5S)-3,4,5-trimethylpiperazin-1-yl]phenyl]-6-oxo-4-(trifluoromethyl)-1H-pyridine-3-carboxamide]

Same assay, conditions: surface plasmon resonance (SPR); read-out: WDR5 binding affinity (KD)

Row | SMILES | Kd
9 | C[C@@H]1CN(c2cc(F)c(-c3ccnc(N4CCOCC4)n3)cc2NC(=O)c2cn(C)c(=O)cc2C(F)(F)F)C[C@H](C)N1C [Example 693, N-[4-fluoro-5-(2-morpholin-4-ylpyrimidin-4-yl)-2-[(3R,5S)-3,4,5-trimethylpiperazin-1-yl]phenyl]-1-methyl-6-oxo-4-(trifluoromethyl)pyridine-3-carboxamide] | 4.79 nM
10 | C[C@@H]1CN(c2cc(F)c(-c3cnc(N4CCNCC4)nc3)cc2NC(=O)c2ccc(F)cc2C(F)(F)F)C[C@H](C)N1C [Example 546, 4-fluoro-N-[4-fluoro-5-(2-piperazin-1-ylpyrimidin-5-yl)-2-[(3R,5S)-3,4,5-trimethylpiperazin-1-yl]phenyl]-2-(trifluoromethyl)benzamide] | 2.1 nM
11 | C[C@@H]1CN(c2cc(F)c(-c3ccnc(N4CCO[C@@H](C)C4)n3)cc2NC(=O)c2cn(C)c(=O)cc2C(F)(F)F)C[C@H](C)N1C (racemic) [Example 694, N-[4-fluoro-5-[2-[(2R)-2-methylmorpholin-4-yl]pyrimidin-4-yl]-2-[(3S,5R)-3,4,5-trimethylpiperazin-1-yl]phenyl]-1-methyl-6-oxo-4-(trifluoromethyl)pyridine-3-carboxamide] | 4.92 nM
12 | C[C@@H]1CN(c2cc(F)c(-c3ccc(N4CCOCC4)c(F)c3)cc2NC(=O)c2c[nH]c(=O)cc2C(F)F)C[C@H](C)N1C [Example 436, 4-(difluoromethyl)-N-[4-fluoro-5-(3-fluoro-4-morpholin-4-ylphenyl)-2-[(3R,5S)-3,4,5-trimethylpiperazin-1-yl]phenyl]-6-oxo-1H-pyridine-3-carboxamide] | 1.39 nM
13 | C[C@@H]1CN(c2ncc(-c3cc(NC(=O)c4cn(C)c(=O)cc4C(F)F)c(N4C[C@@H](C)N(C)[C@@H](C)C4)cc3F)cn2)CCO1 [Example 461, 4-(difluoromethyl)-N-[4-fluoro-5-[2-[(2R)-2-methylmorpholin-4-yl]pyrimidin-5-yl]-2-[(3R,5S)-3,4,5-trimethylpiperazin-1-yl]phenyl]-1-methyl-6-oxopyridine-3-carboxamide] | 4.93 nM
14 | C[C@@H]1CN(c2cc(F)c(-c3cc(F)c(C(=O)N(C)C4CCCC4)c(F)c3)cc2NC(=O)c2c[nH]c(=O)cc2C(F)(F)F)C[C@H](C)N1C [Example 761, N-(4′-(cyclopentyl(methyl)carbamoyl)-3′,5′,6-trifluoro-4-((3S,5R)-3,4,5-trimethylpiperazin-1-yl)-[1,1′-biphenyl]-3-yl)-6-oxo-4-(trifluoromethyl)-1,6-dihydropyridine-3-carboxamide] | 2 nM

Continued, values first:

Row | Kd | SMILES
15 | 151 nM | C[C@@H]1CN(c2cc(F)c(-c3ccc(C(=O)NC(C)(C)CC(C)(C)C)c(F)c3F)cc2NC(=O)c2ccc(F)cc2C(F)(F)F)C[C@H](C)N1C [Example 665, 2,3-difluoro-4-[2-fluoro-5-[[4-fluoro-2-(trifluoromethyl)benzoyl]amino]-4-[(3R,5S)-3,4,5-trimethylpiperazin-1-yl]phenyl]-N-(2,4,4-trimethylpentan-2-yl)benzamide]
16 | 10.4 nM | C[C@@H]1CN(c2cc(F)c(-c3ccc(F)c(C(N)=O)c3)cc2NC(=O)c2ccc(F)cc2C(F)(F)F)C[C@H](C)N1C [Example 556, 2-fluoro-5-[2-fluoro-5-[[4-fluoro-2-(trifluoromethyl)benzoyl]amino]-4-[(3R,5S)-3,4,5-trimethylpiperazin-1-yl]phenyl]benzamide]
17 | 2.29 nM | C[C@@H]1CN(c2cc(F)c(-c3cnc(N4CCOC(C)(C)C4)nc3)cc2NC(=O)c2cn(C)c(=O)cc2C(F)(F)F)C[C@H](C)N1C [Example 662, N-[5-[2-(2,2-dimethylmorpholin-4-yl)pyrimidin-5-yl]-4-fluoro-2-[(3R,5S)-3,4,5-trimethylpiperazin-1-yl]phenyl]-1-methyl-6-oxo-4-(trifluoromethyl)pyridine-3-carboxamide]
18 | 1.98 nM | C[C@@H]1CN(c2cc(F)c(-c3csc(C(=O)NC4CCCCC4)n3)cc2NC(=O)c2c[nH]c(=O)cc2C(F)(F)F)C[C@H](C)N1C [Example 533, N-cyclohexyl-4-[2-fluoro-5-[[6-oxo-4-(trifluoromethyl)-1H-pyridine-3-carbonyl]amino]-4-[(3R,5S)-3,4,5-trimethylpiperazin-1-yl]phenyl]-1,3-thiazole-2-carboxamide]
19 | 2.68 nM | CC1CN(c2cc(F)c(-c3ccnc(N4CCOCC4)n3)cc2NC(=O)c2cn(C)c(=O)cc2C(F)F)CCN1C (stereo in doubt) [Example 664, 4-(difluoromethyl)-N-[4-fluoro-5-(2-morpholin-4-ylpyrimidin-4-yl)-2-[(3R)-3,4-dimethylpiperazin-1-yl]phenyl]-1-methyl-6-oxopyridine-3-carboxamide]
20 | 3.85 nM | C[C@@H]1CN(c2cc(F)c(-c3ccc(C(N)=O)c(F)c3F)cc2NC(=O)c2c[nH]c(=O)cc2C(F)(F)F)C[C@H](C)N1C [Example 670, N-[5-(4-carbamoyl-2,3-difluorophenyl)-4-fluoro-2-[(3R,5S)-3,4,5-trimethylpiperazin-1-yl]phenyl]-6-oxo-4-(trifluoromethyl)-1H-pyridine-3-carboxamide]
21 | 1.73 nM | C[C@@H]1CN(c2cc(F)c(C3=CCCN(c4ccnc(C#N)n4)C3)cc2NC(=O)c2c[nH]c(=O)cc2C(F)(F)F)C[C@H](C)N1C [Example 701, N-[5-[1-(2-cyanopyrimidin-4-yl)-3,6-dihydro-2H-pyridin-5-yl]-4-fluoro-2-[(3R,5S)-3,4,5-trimethylpiperazin-1-yl]phenyl]-6-oxo-4-(trifluoromethyl)-1H-pyridine-3-carboxamide]
22 | 117 nM | CC1CN(c2cc(F)c(-c3ccc(C(=O)NC(C)(C)CC(C)(C)C)c(F)c3F)cc2NC(=O)c2ccc(F)cc2C(F)(F)F)CCN1C (stereo in doubt) [Example 666, 2,3-difluoro-4-[2-fluoro-5-[[4-fluoro-2-(trifluoromethyl)benzoyl]amino]-4-[(3R)-3,4-dimethylpiperazin-1-yl]phenyl]-N-(2,4,4-trimethylpentan-2-yl)benzamide]
23 | 3.81 nM | CC1CN(c2cc(F)c(C3=CCCN(C(=O)OC4CC(F)(F)C4)C3)cc2NC(=O)c2ccc(F)cc2C(F)(F)F)CCN1C (stereo in doubt) [Example 706, (3,3-difluorocyclobutyl) 5-[2-fluoro-5-[[4-fluoro-2-(trifluoromethyl)benzoyl]amino]-4-[(3R)-3,4-dimethylpiperazin-1-yl]phenyl]-3,6-dihydro-2H-pyridine-1-carboxylate]
24 | 9.03 nM | C[C@@H]1CN(c2cc(F)c(-c3ccc(N4CCOCC4)c(F)c3)cc2NC(=O)c2cn(C)c(=O)cc2C(F)F)C[C@H](C)N1C [Example 449, 4-(difluoromethyl)-N-[4-fluoro-5-(3-fluoro-4-morpholin-4-ylphenyl)-2-[(3R,5S)-3,4,5-trimethylpiperazin-1-yl]phenyl]-1-methyl-6-oxopyridine-3-carboxamide]
